Laboratory results: US20190351002A1, “METHOD OF TREATING CANCER, PARASITE, MICROBIAL OR FUNGAL DISEASE” (priority 2017, published 2019)

Columns and labels:
[1] = test system: Hep2 (Human Epidermoid Larynx ca) cells; experiment: MTT cytotoxicity test on Hep2 cell line; format: cell-based
Text: The oils of the plant as an extract are used which have been obtained by cold pressing and it has been ensured that the extract is fresh and pure. The extracts that have been obtained through the whole study have been initially diluted with solvents, filtered and sterilized. Cytotoxicity study (MTT test) has been developed as a method regarding the Hep2 cell line in all parameters for initial doses. The maximum dose and dilution sub doses that have been determined accordingly have been repeated controlled groups. Different amounts of Hep2 cells have been tested in flat bottomed 96 well plates for cell culture during the first stage of the study and it has been determined that 2×10^4 cells were optimal for the monolayer layer of 2×10^4 cell per well. A pure oil of Zingiber officinale extract, which has been tested inside various solvents in terms of penetration into cells and homogenous distribution. MTT tests have been carried out relating to Hep2 cells in solvents too. DMSO was selected from solvents such as DMSO and Methanol and was used and cytopathic doses have not been exceeded during the whole study (FIG. 1). Essential oil has been obtained from Ginger and emulsions have been obtained from fixed oil plants (Nigella Sativa etc.) and compounds. According to MTT test (FIG. 2) results that belong to Zingiber officinale, the average OD values of the control group have been determined as 1.38.

Toxoplasma gondii = experiment: ELISA test of efficiency against Toxoplasma gondii in infected Hep2 cells; format: cell-based; conditions: 48 hour
Text: An ELISA (Enzyme-Linked Immunosorbent Assay) test (FIG. 3) has been planned and conducted in order to determine efficiency against Toxoplasma gondii.
The ELISA test has been carried out on flat bottom well plates having 96 wells. First of all, the bases of the plates have been covered with a suitable amount of Hep2 cells. […] Following this all wells have been processed again with different doses (determined with MTT) of pyrimtheamine, sulphadiazine—and Ginger (Zingiber officinals) extract, prepared with DMSO.
1 Following all of these procedures, the supernatants were removed from the wells and were retained for 10 minutes with 100 μl cold methanol. • The plates which were ready for the ELISA process were then worked.
The result was read by the ELISA reader device in 30 minutes.

Compound	OD value (MTT test) ([1]; 50 μg/ml)	OD value (MTT test) ([1]; 100 μg/ml)	OD value (MTT test) ([1]; 200 μg/ml)	OD value (MTT test) ([1]; 1 μg/ml)	OD value (MTT test) ([1]; 2 μg/ml)	OD value (MTT test) ([1]; 4 μg/ml)	OD value (MTT test) ([1]; 8 μg/ml)	OD value (MTT test) ([1]; 16 μg/ml)	OD value (MTT test) ([1]; 32 μg/ml)	ELISA OD value / reproduction according to positive control (PK) (Toxoplasma gondii; 0.5 μg/ml) [%]	ELISA OD value / reproduction according to positive control (PK) (Toxoplasma gondii; 4 μg/ml) [%]	ELISA OD value / reproduction according to positive control (PK) (Toxoplasma gondii; 2nd dose (printed '2.1 and 0.5 μg/ml': 2 μg/ml)) [%]	ELISA OD value / reproduction according to positive control (PK) (Toxoplasma gondii; 3rd dose) [%]
Nc1ccc(S(=O)(=O)Nc2ncccn2)cc1 [Sulphadiazine]	1.002	0.827	0.254	–	–	–	–	–	–	–	–	–	–
CCc1nc(N)nc(N)c1-c1ccc(Cl)cc1 [Pyrimethamine]	–	–	–	1.228	1.198	0.623	0.310	0.209	0.097	75	45	56	54
